In patent US9273003B2, “Methods of treating lymphoma and rheumatoid arthritis with cyclopentyl (2S)-cyclohexyl[({6-[3-(hydroxyamino)-3-oxopropyl]pyridin-3-yl}methyl)amino]acetate” (GlaxoSmithKline Intellectual Property Development Limited, priority 2006, dated 2016):

Key:
HUT78 cells = experiment: HUT cell inhibition assay (WST-1 cell viability); type: cell-based; details: Homo sapiens; HUT78 cells; IC50 allocated to ranges; read-out: HUT activity
In short: (§1)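 Log-phase cells seeded at 1000-2000/well, grown 24 h, then exposed to compound for 72-96 h before WST-1 viability readout. Eight concentrations (top 10 μM final, 3-fold steps), 6 replicates; % inhibition versus DMSO, IC50 by sigmoidal variable-slope fit.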

[1] = molecular target: histone deacetylase activity (HeLa nuclear extract); experiment: HDAC fluorescent activity assay (Fluor de Lys, Biomol); type: biochemical; details: IC50 allocated to ranges, read-out: HDAC activity
In short: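 HeLa nuclear extract as HDAC source incubated with acetyl-lysine Fluor de Lys substrate ± inhibitor; developer then releases fluorophore from deacetylated substrate. Activity as % of vehicle control after no-enzyme background subtraction; IC50 from eight-point variable-slope sigmoidal fit.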

U937 cells = experiment: U937 cell inhibition assay (WST-1 cell viability); type: cell-based; details: Homo sapiens, U-937; U937 cells; IC50 allocated to ranges; read-out: U937 activity
In short: as §1

HeLa cells = experiment: HeLa cell inhibition assay (sulphorhodamine B cell viability); type: cell-based; details: Homo sapiens, IC50 allocated to ranges
Method: HeLa cells growing in log phase were harvested and seeded at 1000 cells/well (200 μl final volume) into 96-well tissue culture plates. Following 24 h of cell growth cells were treated with compounds (final concentration of 20 μM). Plates were then re-incubated for a further 72 h before a sulphorhodamine B (SRB) cell viability assay was conducted according to the methodology described by Skehan et al, J. Natl. Canc. Inst., 1990, 82, 1107-1112.
Data were expressed as a percentage inhibition of the control, measured in the absence of inhibitor, as follows:— % inhibition=100−[(S^i/S^o)×100] where S^i is the signal in the presence of inhibitor and S^o is the signal in the presence of DMSO.
IC50 values were determined by non-linear regression analysis, after fitting the results of eight data points to the equation for sigmoidal dose response with variable slope (% activity against log concentration of Compound), using Graphpad Prism software.

Row | SMILES | IC50 [1] [µM] | IC50 (U937 cells) [µM] | IC50 (HeLa cells) [µM] | IC50 (HUT78 cells) [µM]
1 | CC(C)(C)OC[C@@H](NCc1ccc(/C=C/C(=O)NO)cc1)C(=O)OC1CCCC1 [Example 20, Cyclopentyl O-tert-butyl-N-{4-[(1E)-3-(hydroxyamino)-3-oxoprop-1-en-1-yl]benzyl}-D-serinate] | 0.101 to 1 | < 0.33 | > 3.3 | 0.331 to 3.3
2 | O=C(/C=C/c1cccc(S(=O)(=O)N[C@H](C(=O)OC2CCCC2)c2ccccc2)c1)NO [Example 1, cyclopentyl (2S)-[({3-[(1E)-3-(hydroxyamino)-3-oxoprop-1-en-1-yl]phenyl}sulfonyl)amino](phenyl)acetate] | 0.101 to 1 | > 3.3 | > 3.3 | > 3.3
3 | CC(C)C[C@@H](NCc1ccc(/C=C/C(=O)NO)cc1)C(=O)OC1CCCC1 [Example 18, Cyclopentyl N-{4-[(1E)-3-(hydroxyamino)-3-oxoprop-1-en-1-yl]benzyl}-D-leucinate] | 0.101 to 1 | 0.331 to 3.3 | > 3.3 | 0.331 to 3.3
4 | C=CCOC(=O)[C@@H](NCc1ccc(/C=C/C(=O)NO)cc1)C1CCCCC1 [Example 25, Allyl (2S)-cyclohexyl({4-[(1E)-3-(hydroxyamino)-3-oxoprop-1-en-1-yl]benzyl}amino)acetate] | < 0.1 | < 0.33 | 0.331 to 3.3 | 0.331 to 3.3
5 | O=C(/C=C/c1ccc(CN[C@H](C(=O)OC2Cc3ccccc3C2)C2CCCCC2)cn1)NO [Example 55, 2,3-Dihydro-1H-inden-2-yl (2S)-cyclohexyl[({6-[(1E)-3-(hydroxyamino)-3-oxoprop-1-en-1-yl]pyridin-3-yl}methyl)amino]acetate] | < 0.1 | < 0.33 | 0.331 to 3.3 | < 0.33
6 | CC(C)(C)OC[C@H](NCCCOc1ccc(/C=C/C(=O)NO)cc1)C(=O)OC1CCCC1 [Example 10, Cyclopentyl O-tert-butyl-N-(3-{4-[(1E)-3-(hydroxyamino)-3-oxoprop-1-en-1-yl]phenoxy}propyl)-L-serinate] | 0.101 to 1 | 0.331 to 3.3 | 0.331 to 3.3 | 0.331 to 3.3
7 | CC(C)C[C@H](NCc1ccc(CCC(=O)NO)cc1)C(=O)OC1Cc2ccccc2C1 [Example 37, 2,3-Dihydro-1H-inden-2-yl N-{4-[3-(hydroxyamino)-3-oxopropyl]benzyl}-L-leucinate] | 0.101 to 1 | < 0.33 | 0.331 to 3.3 | < 0.33
8 | O=C(/C=C/c1ccc(CN2CCC(N[C@H](C(=O)OC3CCCC3)C3CCCCC3)CC2)cc1)NO [Example 80, Cyclopentyl (2S)-cyclohexyl[(1-{4-[(1E)-3-(hydroxyamino)-3-oxoprop-1-en-1-yl]benzyl}piperidin-4-yl)amino]acetate] | 0.101 to 1 | < 0.33 | 0.331 to 3.3 | < 0.33
9 | CC(C)(C)OC[C@H](NC1CCN(Cc2ccc(/C=C/C(=O)NO)cc2)CC1)C(=O)OC1CCCC1 [Example 81, Cyclopentyl O-tert-butyl-N-(1-{4-[(1E)-3-(hydroxyamino)-3-oxoprop-1-en-1-yl]benzyl}piperidin-4-yl)-L-serinate] | 0.101 to 1 | < 0.33 | 0.331 to 3.3 | < 0.33
10 | CC(C)C[C@H](NC(=O)c1ccc(/C=C/C(=O)NO)cc1)C(=O)OC1CCCC1 [Example 8, Cyclopentyl N-{4-[(1E)-3-(hydroxyamino)-3-oxoprop-1-en-1-yl]benzoyl}-L-leucinate] | 0.101 to 1 | 0.331 to 3.3 | 0.331 to 3.3 | 0.331 to 3.3
11 | O=C(/C=C/c1ccc(CN[C@H](C(=O)OC2CC3CCC2C3)C2CCCCC2)cc1)NO (stereo partly drawn) [Example 26, Bicyclo[2.2.1]hept-2-yl (2S)-cyclohexyl({4-[(1E)-3-(hydroxyamino)-3-oxoprop-1-en-1-yl]benzyl}amino)acetate] | 0.101 to 1 | < 0.33 | 0.331 to 3.3 | 0.331 to 3.3
12 | O=C(/C=C/c1cccc(C(=O)N[C@H](C(=O)OC2CCCC2)c2ccccc2)c1)NO [Example 6, Cyclopentyl (2S)-({3-[(1E)-3-(hydroxyamino)-3-oxoprop-1-en-1-yl]benzoyl}amino)(phenyl)acetate] | 0.101 to 1 | 0.331 to 3.3 | > 3.3 | 0.331 to 3.3

Further lines, with some results ahead:

Row | IC50 [1] [µM] | IC50 (U937 cells) [µM] | IC50 (HeLa cells) [µM] | SMILES | IC50 (HUT78 cells) [µM]
13 | 0.101 to 1 | 0.331 to 3.3 | > 3.3 | CC(C)C[C@H](NCc1ccc(CCC(=O)NO)cc1)C(=O)OCCN(C)C [Example 38, 2-(Dimethylamino)ethyl N-{4-[3-(hydroxyamino)-3-oxopropyl]benzyl}-L-leucinate] | > 3.3
14 | < 0.1 | < 0.33 | 0.331 to 3.3 | O=C(/C=C/c1ccc(CN[C@H](C(=O)OCCN2CCOCC2)C2CCCCC2)cn1)NO [Example 56, 2-Morpholin-4-ylethyl (2S)-cyclohexyl[({6-[(1E)-3-(hydroxyamino)-3-oxoprop-1-en-1-yl]pyridin-3-yl}methyl)amino]acetate] | < 0.33
15 | < 0.1 | 0.331 to 3.3 | 0.331 to 3.3 | O=C(/C=C/c1cccc(C(=O)N[C@H](C(=O)OC2CCCC2)C2CCCCC2)c1)NO [Example 5, Cyclopentyl (2S)-cyclohexyl({3-[(1E)-3-(hydroxyamino)-3-oxoprop-1-en-1-yl]benzoyl}amino)acetate] | 0.331 to 3.3
16 | 0.101 to 1 | 0.331 to 3.3 | > 3.3 | O=C(/C=C/c1ccc(CN[C@@H](C(=O)OC2CCCC2)C2CCCCC2)cc1)NO [Example 19, Cyclopentyl (2R)-cyclohexyl({4-[(1E)-3-(hydroxyamino)-3-oxoprop-1-en-1-yl]benzyl}amino)acetate] | > 3.3
17 | > 1 | > 3.3 | > 3.3 | O=C(/C=C/c1ccc(OCCCN[C@H](C(=O)OC2CCCC2)C2CCCCC2)cc1)NO [Example 9, Cyclopentyl (2S)-cyclohexyl[(3-{4-[(1E)-3-(hydroxyamino)-3-oxoprop-1-en-1-yl]phenoxy}propyl)amino]acetate] | > 3.3
18 | > 1 | 0.331 to 3.3 | 0.331 to 3.3 | O=C(/C=C/c1cccc(CNCC2CCC(CN[C@H](C(=O)OC3CCCC3)C3CCCCC3)CC2)c1)NO (stereo partly drawn) [Example 79, Cyclopentyl (2S)-cyclohexyl[({4-[({3-[(1E)-3-(hydroxyamino)-3-oxoprop-1-en-1-yl]benzyl}amino)methyl]cyclohexyl}methyl)amino]acetate] | 0.331 to 3.3
19 | > 1 | > 3.3 | > 3.3 | O=C(/C=C/c1cccc(CN[C@H](C(=O)OC2CCCC2)c2ccccc2)c1)NO [Example 13, Cyclopentyl (2S)-({3-[(1E)-3-(hydroxyamino)-3-oxoprop-1-en-1-yl]benzyl}amino)(phenyl)acetate] | 0.331 to 3.3
20 | < 0.1 | < 0.33 | > 3.3 | CN(C)CCOC(=O)[C@@H](NCc1ccc(/C=C/C(=O)NO)nc1)C1CCCCC1 [Example 57, 2-(Dimethylamino)ethyl (2S)-cyclohexyl[({6-[(1E)-3-(hydroxyamino)-3-oxoprop-1-en-1-yl]pyridin-3-yl}methyl)amino]acetate] | < 0.33
21 | 0.101 to 1 | 0.331 to 3.3 | > 3.3 | CC(C)C[C@H](NCCCOc1ccc(/C=C/C(=O)NO)cc1)C(=O)OC1CCCC1 [Example 11, Cyclopentyl N-(3-{4-[(1E)-3-(hydroxyamino)-3-oxoprop-1-en-1-yl]phenoxy}propyl)-L-leucinate] | 0.331 to 3.3
